Test system: DSS (Dahl Salt Sensitive) rats
Assay: In vivo efficacy study on blood pressure in DSS rats (telemetry; systolic and diastolic pressure)
Details: for Systolic blood pressure, mean: Compound I-1 50 mg/kg, alone or combined, QD PO
Excerpt: An in vivo study ascertains the effects on blood pressure in DSS (Dahl Salt Sensitive) rats. The DSS hypertensive rat model is a model of hypertension that is sensitive to dietary salt (NaCl), see for example Rapp (1982) Hypertension 4:753-763 and Hegde et al. BMC Pharmacology 2011, 11 (Suppl 1):P33. Under pentobarbital sodium anesthesia, a DSI (Data Sciences International, St. Paul, Minn.) telemetric probe is implanted. The transducer is inserted into abdominal aorta, and the transmitter is implanted into abdominal cavity. During postoperative recovery period, close observation is performed. Analgesics (Buprenorphine, 0.1-0.5 mg/kg, once per day for 1 day) and preventive antibiotics (Cephradine, 10˜15 mg/kg, ip., once per day for 3 days) are administered on a daily basis. Before the treatment period, all animals are fed with 8% high salt food for about 2 weeks. Test compound is formulated in 0.5% HPC and administered by oral gavage. Five groups of animals are treated as follows: 1. Vehicle, 0.5% HPC, QD, PO, N=5 2. Valsartan, 30 mg/kg, QD, PO, N=5 3. Compound I-1, 50 mg/kg, QD, PO, N=6 4. Compound I-1, 15 mg/kg+Valsartan, 30 mg/kg, QD, PO, N=5 5. Compound I-1, 50 mg/kg+Valsartan, 30 mg/kg, QD, PO, N=5 N is the number of animals. The mean arterial pressure, systolic pressure, diastolic pressure and heart rate after administration for each animal are measured. Interim results obtained before full study completion are shown in Tables 18 and 19 (full cohort of animals beyond day 7 were reduced due to some loss). Mean measurements of the systolic (Table 18) and diastolic (Table 19) blood pressures, for the baseline day prior to first treatment and for treatment days 1 and 7 only, in each treatment group, are shown. Measurements obtained every other hour only are shown.

CCCCC(=O)N(Cc1ccc(-c2ccccc2-c2nnn[nH]2)cc1)[C@H](C(=O)O)C(C)C [Valsartan, valsartan]
Systolic blood pressure, mean (Baseline day prior to first treatment, Hour 1, groups Valsartan 30 mg/kg): 157.31 | Systolic blood pressure, mean (Baseline day prior to first treatment, Hour 3, groups Valsartan 30 mg/kg): 154.77 | Systolic blood pressure, mean (Baseline day prior to first treatment, Hour 5, groups Valsartan 30 mg/kg): 151.17 | Systolic blood pressure, mean (Baseline day prior to first treatment, Hour 7, groups Valsartan 30 mg/kg): 154.26 | Systolic blood pressure, mean (Baseline day prior to first treatment, Hour 9, groups Valsartan 30 mg/kg): 160.88 | Systolic blood pressure, mean (Baseline day prior to first treatment, Hour 11, groups Valsartan 30 mg/kg): 163.83 | Systolic blood pressure, mean (Baseline day prior to first treatment, Hour 13, groups Valsartan 30 mg/kg): 164.35 | Systolic blood pressure, mean (Baseline day prior to first treatment, Hour 15, groups Valsartan 30 mg/kg): 163.94 | Systolic blood pressure, mean (Baseline day prior to first treatment, Hour 17, groups Valsartan 30 mg/kg): 164.12 | Systolic blood pressure, mean (Baseline day prior to first treatment, Hour 19, groups Valsartan 30 mg/kg): 166.66 | Systolic blood pressure, mean (Baseline day prior to first treatment, Hour 21, groups Valsartan 30 mg/kg): 166.05 | Systolic blood pressure, mean (Baseline day prior to first treatment, Hour 23, groups Valsartan 30 mg/kg): 162.95 | effect on blood pressure (DSS rats, as compared to animals treated with vehicle alone, interim results): trend for lower blood pressure | Systolic blood pressure, mean (Dosing day 1, Hour 1, Valsartan 30 mg/kg): 159.22 | Systolic blood pressure, mean (Dosing day 1, Hour 3, Valsartan 30 mg/kg): 149.24 | Systolic blood pressure, mean (Dosing day 1, Hour 5, Valsartan 30 mg/kg): 152.75 | Systolic blood pressure, mean (Dosing day 1, Hour 7, Valsartan 30 mg/kg): 160.54 | Systolic blood pressure, mean (Dosing day 1, Hour 9, Valsartan 30 mg/kg): 165.09 | Systolic blood pressure, mean (Dosing day 1, Hour 11, Valsartan 30 mg/kg): 166.16 | Systolic blood pressure, mean (Dosing day 1, Hour 13, Valsartan 30 mg/kg): 162.84 | Systolic blood pressure, mean (Dosing day 1, Hour 15, Valsartan 30 mg/kg): 162.88 | Systolic blood pressure, mean (Dosing day 1, Hour 17, Valsartan 30 mg/kg): 169.80 | Systolic blood pressure, mean (Dosing day 1, Hour 19, Valsartan 30 mg/kg): 162.27 | Systolic blood pressure, mean (Dosing day 1, Hour 21, Valsartan 30 mg/kg): 163.01 | Systolic blood pressure, mean (Dosing day 1, Hour 23, Valsartan 30 mg/kg): 155.05 | Systolic blood pressure, mean (Dosing day 7, Hour 1, Valsartan 30 mg/kg): 165.60 | Systolic blood pressure, mean (Dosing day 7, Hour 3, Valsartan 30 mg/kg): 143.04 | Systolic blood pressure, mean (Dosing day 7, Hour 5, Valsartan 30 mg/kg): 142.52 | Systolic blood pressure, mean (Dosing day 7, Hour 7, Valsartan 30 mg/kg): 153.17 | Systolic blood pressure, mean (Dosing day 7, Hour 9, Valsartan 30 mg/kg): 170.26 | Systolic blood pressure, mean (Dosing day 7, Hour 11, Valsartan 30 mg/kg): 173.95 | Systolic blood pressure, mean (Dosing day 7, Hour 13, Valsartan 30 mg/kg): 175.24 | Systolic blood pressure, mean (Dosing day 7, Hour 15, Valsartan 30 mg/kg): 177.02 | Systolic blood pressure, mean (Dosing day 7, Hour 17, Valsartan 30 mg/kg): 176.02 | Systolic blood pressure, mean (Dosing day 7, Hour 19, Valsartan 30 mg/kg): 176.83 | Systolic blood pressure, mean (Dosing day 7, Hour 21, Valsartan 30 mg/kg): 164.22 | Systolic blood pressure, mean (Dosing day 7, Hour 23, Valsartan 30 mg/kg): 163.41 | Diastolic blood pressure, Mean (Valsartan 30 mg/kg, Baseline day, Hour 1): 106.03 | Diastolic blood pressure, Mean (Valsartan 30 mg/kg, Baseline day, Hour 3): 102.82 | Diastolic blood pressure, Mean (Valsartan 30 mg/kg, Baseline day, Hour 5): 100.19 | Diastolic blood pressure, Mean (Valsartan 30 mg/kg, Baseline day, Hour 7): 103.02 | Diastolic blood pressure, Mean (Valsartan 30 mg/kg, Baseline day, Hour 9): 110.48 | Diastolic blood pressure, Mean (Valsartan 30 mg/kg, Baseline day, Hour 11): 114.29 | Diastolic blood pressure, Mean (Valsartan 30 mg/kg, Baseline day, Hour 13): 115.22 | Diastolic blood pressure, Mean (Valsartan 30 mg/kg, Baseline day, Hour 15): 113.98 | Diastolic blood pressure, Mean (Valsartan 30 mg/kg, Baseline day, Hour 17): 114.14 | Diastolic blood pressure, Mean (Valsartan 30 mg/kg, Baseline day, Hour 19): 116.35 | Diastolic blood pressure, Mean (Valsartan 30 mg/kg, Baseline day, Hour 21): 116.78 | Diastolic blood pressure, Mean (Valsartan 30 mg/kg, Baseline day, Hour 23): 111.79 | Diastolic blood pressure, Mean (Valsartan 30 mg/kg, Dosing day 1, Hour 1): 107.73 | Diastolic blood pressure, Mean (Valsartan 30 mg/kg, Dosing day 1, Hour 3): 101.25 | Diastolic blood pressure, Mean (Valsartan 30 mg/kg, Dosing day 1, Hour 5): 98.63 | Diastolic blood pressure, Mean (Valsartan 30 mg/kg, Dosing day 1, Hour 7): 100.29 | Diastolic blood pressure, Mean (Valsartan 30 mg/kg, Dosing day 1, Hour 9): 109.35 | Diastolic blood pressure, Mean (Valsartan 30 mg/kg, Dosing day 1, Hour 11): 115.04 | Diastolic blood pressure, Mean (Valsartan 30 mg/kg, Dosing day 1, Hour 13): 116.06 | Diastolic blood pressure, Mean (Valsartan 30 mg/kg, Dosing day 1, Hour 15): 113.61 | Diastolic blood pressure, Mean (Valsartan 30 mg/kg, Dosing day 1, Hour 17): 112.82 | Diastolic blood pressure, Mean (Valsartan 30 mg/kg, Dosing day 1, Hour 19): 119.69 | Diastolic blood pressure, Mean (Valsartan 30 mg/kg, Dosing day 1, Hour 21): 112.65 | Diastolic blood pressure, Mean (Valsartan 30 mg/kg, Dosing day 1, Hour 23): 112.26 | Diastolic blood pressure, Mean (Valsartan 30 mg/kg, Dosing day 7, Hour 1): 113.86 | Diastolic blood pressure, Mean (Valsartan 30 mg/kg, Dosing day 7, Hour 3): 94.17 | Diastolic blood pressure, Mean (Valsartan 30 mg/kg, Dosing day 7, Hour 5): 93.33 | Diastolic blood pressure, Mean (Valsartan 30 mg/kg, Dosing day 7, Hour 7): 102.69 | Diastolic blood pressure, Mean (Valsartan 30 mg/kg, Dosing day 7, Hour 9): 117.65 | Diastolic blood pressure, Mean (Valsartan 30 mg/kg, Dosing day 7, Hour 11): 123.73 | Diastolic blood pressure, Mean (Valsartan 30 mg/kg, Dosing day 7, Hour 13): 125.63 | Diastolic blood pressure, Mean (Valsartan 30 mg/kg, Dosing day 7, Hour 15): 126.20 | Diastolic blood pressure, Mean (Valsartan 30 mg/kg, Dosing day 7, Hour 17): 124.23 | Diastolic blood pressure, Mean (Valsartan 30 mg/kg, Dosing day 7, Hour 19): 127.67 | Diastolic blood pressure, Mean (Valsartan 30 mg/kg, Dosing day 7, Hour 21): 112.77 | Diastolic blood pressure, Mean (Valsartan 30 mg/kg, Dosing day 7, Hour 23): 112.12
